Results as given in patent US8338108B2, “Agent for promoting the production of thioredoxin” (Kyoto University, priority 2006, dated 2012).

Tested on: A549 cells
Assay: Cytoprotective action to stimulation by cigarette smoke extract (LDH assay)
Type: cell-based, human
Settings: NAC 0.1 mM, FIG. 2
Procedure: A549 cells were pre-incubated for 16 hours with addition of a test substance (0.01 U/mL) in a DMEM medium wherefrom thiol was removed. Incubation was conducted for 6 hours more after addition of a cigarette smoke extract […] and, after that, LDH in the supernatant liquid of the culture was measured by means of an LDH assay (Roche Diagnostics) and used as an index for viability of the cells. The cigarette smoke extract (CSE) was prepared using a cigarette smoke generator SG-200 (Shibata Kagaku). Thus, smoke of ten cigarettes (Kentucky Research Cigarette 2R4F) which was passed through 10 mL of DMEM wherefrom thiol was removed (10% HEPES was added thereto) was defined as 100% CSE and used after appropriately diluting to the concentrations which were suitable for the experiments.

**Q.** How did the “cell injury by CSE, effect of the extract compared with NAC” value turn out when `CC(=O)N[C@@H](CS)C(=O)O` [NAC, N-acetylcysteine] was run?
**A.** identical
